# From US20060008466A1, “Methods for treating and preventing microbial infections” (University of Saskatchewan, priority 2004, published 2006)
# Bridge positions count the residues as written; N and C are the ends. Ends that are not written are not given here.
# Legend:
# Salmonella typhimurium = details: 40 μg/ml; cited from earlier work
# Escherchia coli = details: 40 μg/ml; cited from earlier work
# B. bronchiseptica [1] = test: In vitro bactericidal activity against B. bronchiseptica, plate counts; assay type: cell-based
# Description: (§1) E. coli, Actinobacillus pleuropneumoniae and B. bronchiseptica were grown on agar plates using routine procedures. The bacteria were washed off the plates, washed in saline and subsequently resuspended in media. They were co-incubated with pBD-1 in varying doses and incubated for various time periods (6-48 hours). The bacteria were quantified by plating the suspension onto agar plates.
# (§2) Bactericidal activity of bronchoalveolar lavage (BAL) fluid obtained from non-infected piglets was analyzed against B. pertussis in vitro. Non-infected piglets, either 4-5 weeks old or newborn piglets (6 hours old, colostrum-deprived or colostrum-fed), were euthanized and BALs were collected in Stainer-Scholte (SS) medium. The BAL fluid was obtained by filling the lungs with 10 ml of SS medium and withdrawing as much fluid as possible (this procedure was performed once). Alveolar macrophages and other cells were removed by centrifugation at 500 g for 10 minutes. BALs (290 μl) were co-cultured in microtiter plates with 10 μl bacterial suspension containing 5-7×10^6 CFU of B. pertussis at 37° C. Supernatants were plated onto BG agar plates at different time points to evaluate the number of viable bacteria. The sensitivity of B. pertussis to synthetically derived pBD-1 and human beta-defensin 2 (hBD-2) was assayed by co-culturing appropriate concentrations of pBD-1 or hBD-2 in SS-medium (280 μl) with 5-7×10^6 CFU (10 μl) bacteria. Plates were incubated at 37° C. for 2, 6, 18 and 24 hours. The same procedures were followed to investigate the inhibitory effects of BAL, pBD-1 and hBD-2 against B. bronchiseptica in vitro.
# B. pertussis [2] = test: Transmission electron microscopy of B. pertussis after pBD-1 treatment; assay type: cell-based; details: 20 and 40 μg/ml; 60 minutes at 37° C.
# Description: (§3) To determine the potential mechanism of action of pBD-1, transmission electron microscopy (TEM) was employed to evaluate the effect of pBD-1 on the bacterial membrane of B. pertussis and B. bronchiseptica following treatment with pBD-1. pBD-1 was added at a final concentration of 20 μg/ml or 40 μg/ml to 5-9×10^9 CFU bacteria and incubated for 60 minutes at 37° C. Bacteria were washed with PBS, fixed with an equal volume of 5% glutaraldehyde in 0.1 M sodium cacodylate buffer (pH 7.4), and centrifuged at 5000 g for 5 minutes. Cells were resuspended in 1% agarose and pelleted. The bacterial pellets were stored in the fixative (2.5% glutaraldehyde) at 4° C. for 2 hours. The samples were dehydrated and en bloc stained with uranyl acetate in a series of ethanol concentrations and then embedded in Epon/Araldite. Thin sections were cut using an ultramicrotome with a diamond knife, mounted on specimens grids and stained with uranyl acetate and lead citrate before being examined on a transmission electron microscope (Philips 410LS) operating at 80 kV and at magnification ranging from 24000-55000×.
# B. pertussis [3] = test: In vitro bactericidal activity against B. pertussis in SS medium, viable counts (CFU) on BG agar; assay type: cell-based, B. pertussis strain Tohama I
# Description: The B. pertussis strain used in these experiments was Tohama I. Bacterial suspensions were stored at −70° C. in casamino acid plus 10% glycerol. Organisms were initially grown on the surface of Bordet-Gengou (BG) agar containing 15% (vol/vol) defibrinated sheep blood and 40 μg/ml of Cephalexin at 37° C. for 48 hrs. The bacterial cells were harvested and washed in phosphate-buffered saline (PBS, pH 7.2) by centrifugation at 2500 g for 10 min. The pellets were resuspended in saline and adjusted to a specified bacterial titer by determining the optical density at 600 nm using a spectrophotometer; The corresponding viable counts of these suspensions were measured by plating out serial dilutions of the bacterial suspension onto BG-agar and incubating at 37° C. for 4-5 days.
# To examine the bactericidal effect of defensin against B. pertussis, 10 μl of bacterial suspension (OD600 nm of 0.2) was added to 200 μl of Stainer and Scholte (SS) broth medium with or without chemically synthesized defensin at different concentrations in a 96 well plate and incubated at 37° C. for up to 30 hours. At the end of each incubation period (6 hrs, 18 hrs, 24 hrs, 30 hrs), the culture medium was immediately removed for quantification of viable bacteria. The culture medium with or without defensin was plated onto BG agar plates and incubated at 37° C. for up to 4 days after which time the number of colonies were counted. The number of surviving bacteria was estimated by colony-forming units (CFU). The results were confirmed by three independent experiments compared with results from control bacterial culture (no peptide).
# 20, 40 and 80 μg of pBD-1 was added to bacterial culture and incubated at 37° C. Aliquots were removed at 6, 18 and 30 hr post incubation and incubated for 4 days on BG plates at 37° C.
# as §2
# B. pertussis [4] = test: In vivo antimicrobial activity: pBD-1 delivered into lungs of newborn piglets, challenge with B. pertussis
# Description: Pregnant Landrace sows were purchased from the Saskatoon Prairie Swine Centre, University of Saskatchewan. Sows were induced to farrow by intramuscular (i.m.) injection of prostaglandin (Planate) (Schering, Quebec, Canada) at day 113 of gestation. Piglets were born at day 114-115 of gestation. Nursing piglets were kept within the same room, but in separated pens and monitored very closely. The piglets were challenged at 3-5 days of age. All experiments were conducted in accordance with the ethical guidelines of the University of Saskatchewan and the Canadian Council for Animal Care (CCAC).
# Newborn piglets were anaesthetized with isoflurane and intubated using a laryngoscope. Infection was initiated by delivering 5×10^9 CFU of B. pertussis strain Tohama I intrapulmonarily (craniodorsal of the bifurcation) through a MICRO-RENATHANE tube (0.95) (Braintree Scientific Inc., Braintree, Mass., USA), which was inserted through an endotracheal tube (3 mm) (Jorgensen Laboratories Inc. Loveland, Colo., USA). The bottom-end of the MICRO-RENATHANE tube was sealed and minute holes were made for the equal distribution of bacteria. Piglets were monitored twice daily for clinical symptoms including fever and respiratory symptoms such as nasal discharge, non paroxysmal cough and breathing difficulties. Piglets were euthanized by i.p. injection of 5 ml of Euthanyl (Sodium barbiturate; Bimeda-MTC, Ont, Canada) at different time points over a 10 day period post challenge. The thoracic and the abdominal cavities and the lungs were examined for any lesions and abnormalities such as pleuritis or local collections of blood and fluids in the thorax were noted.
# The antimicrobial activity of pBD-1 was tested in vivo by delivery of pBD-1 into the lungs of newborn piglets prior to challenge with B. pertussis. Pregnant sows, Landrace, were purchased from Saskatoon Prairie Swine Centre, University of Saskatchewan. Sows were farrowed out by i.m. injection of prostaglandin (Planate). Three to four day old colostrum-fed piglets were anaesthetized with isoflurane. 500 μg of pBD-1 dissolved in 1.5 ml PBS was delivered to the lung using a tube placed through the trachea in front of the bifurcation which marks the beginning of the lung (craniodorsal of bifurcation). A volume of 1.5 ml was delivered. Following the delivery of the pBD-1, all piglets were challenged with 5×10^9 cfu bacteria (n=10) by the same procedure. Control animals received saline instead of pBD-1 and were subsequently challenged. Piglets were kept with their sows within the same room in separated pens. Piglets were monitored twice a day.
# In addition, the number of bacteria in BAL fluid and lung lesions was examined over a 10 day period. The BAL fluid was obtained by filling the lungs with 15 ml of SS-medium and withdrawing as much fluid as possible. To quantify the presence of B. pertussis in the BAL, fluid samples were centrifuged to remove debris and host cells; supernatant and dilutions thereof were plated onto BG plates and incubated at 37° C. for up to a week. To determine the number of bacteria within tissues, lesions were excised, weighed, homogenized and plated onto BG agar plates.
# Listeria monocytogenes = details: 40 μg/ml; cited from earlier work
# B. bronchiseptica [5] = test: Transmission electron microscopy of B. bronchiseptica after pBD-1 treatment; assay type: cell-based; details: 80 μg/ml
# Description: as §3, with “bronchiseptica following treatment with pBD-1. pBD-1 was added at a final concentration of 20 μg/ml or 40 μg/ml to 5-9×10^9 CFU bacteria” left out
# E. coli = test: In vitro inhibitory activity against E. coli; assay type: cell-based; details: results not shown
# Description: as §1
# (§4) The inhibitory activity of pBD-1 on the Gram-negative bacteria Actinobacillus pleuropneumoniae, Bordetella bronchiseptica, Streptococcus suis and E. coli was also examined. FIGS. 6A-6B show the results on A. pleuropneumoniae, S. suis, B. bronchiseptica and B. pertussis. The results for E. coli are not shown.
# Candida albicans = details: 40 μg/ml; cited from earlier work
# [6] = system: Actinobacillus pleuropneumoniae; test: In vitro inhibitory activity against Actinobacillus pleuropneumoniae; assay type: cell-based; details: FIG. 6A
# Description: as §1, §4
# Streptococcus suis = test: In vitro inhibitory activity against Streptococcus suis; assay type: cell-based; details: FIG. 6B
# Description: as §4
# B. pertussis isolates = details: cited from earlier work
substance,measurement,setting,value
"H-KNIGNSVSCLRNKGVCMPGKCAPKMKQIGTCGMPQVKCCKRK-NH2 (disulfide 9-38, 16-31, 21-39) [pBD-1]",salt-dependent bactericidal activity,Salmonella typhimurium,has been demonstrated
same,salt-dependent bactericidal activity,Escherchia coli,has been demonstrated
same,growth of B. bronchiseptica,"B. bronchiseptica [1]; 40 μg/ml, 6 and 24 hours (FIG. 7B)",unaffected
same,susceptibility of B. bronchiseptica,"B. bronchiseptica [1]; 160 μg/ml, up to 48 hours incubation",resistant
same,inhibitory activity,B. bronchiseptica [1]; FIG. 6C,Inhibitory activity was observed against all of these organisms except B. bronchiseptica
same,morphological effect on the bacterial cell surface,B. pertussis [2],substantial morphological damage
same,bactericidal activity in diluted SS medium,"B. pertussis [3]; 10 μg/ml, 1/10 diluted SS medium in PBS, shorter period of time (FIG. 5B)",even stronger bactericidal activity
same,growth inhibition in comparison with control medium,"B. pertussis [3]; 20 μg/ml, 6 hours, repeated assay (FIG. 5A)",at least 2 logs
same,inhibition of B. pertussis growth,"B. pertussis [3]; 40 μg/ml, 18 hours of incubation (FIG. 4)",complete inhibition
same,neutralization of 5-8×10^6 CFU of B. pertussis,"B. pertussis [3]; 80 μg/ml, 18 hours, repeated assay (FIG. 5A)",completely neutralized
same,effect of serum on antimicrobial activity,B. pertussis [3]; 10-50% rabbit serum added to the medium,did not inhibit
same,"inhibitory effect against B. pertussis, dependence","B. pertussis [3]; 20, 40, 80 μg, 6, 18, 30 hr",dose and time dependent
same,antimicrobial activity against B. pertussis on addition of salt,B. pertussis [3]; addition of salt,significantly reduced
same,reduction in bacterial growth compared to untreated control wells,"B. pertussis [3]; after 6 hours of incubation, 20-80 μg pBD-1",about 2 logs
same,reduction of bacterial growth,"B. pertussis [3]; after 18 hours, depending on the dose used","more than 100,000 fold"
same,reduction of the bacterial growth,B. pertussis [3]; after 30 hours,"1,000,000 fold"
same,protection of infected piglets,"B. pertussis [4]; 500 μg into the lung at time of challenge, 5×10^9 CFU B. pertussis",complete protection
same,"clinical symptoms (fever, respiratory symptoms)","B. pertussis [4]; 500 μg into the lung, all treated animals, all controls had fever and respiratory symptoms",no clinical symptoms
same,clinical symptoms and pathological alterations,"B. pertussis [4]; 500 μg, at 2, 4, 7 and 10 days post infection",total absence
same,lesions in the histopathology of lung tissues,"B. pertussis [4]; 500 μg, compared with challenged control piglets",either minor or no lesions
same,numbers of bacteria in homogenized lung tissues,"B. pertussis [4]; 500 μg, days 2, 4, 7 and 10 post infection, p<0.005 (FIG. 10B)",significantly lower numbers of bacteria
same,numbers of isolated bacteria in BALs,"B. pertussis [4]; 500 μg, days 2, 4 and 7 post infection, p<0.0001 (FIG. 10A)",significantly reduced
same,salt-dependent bactericidal activity,Listeria monocytogenes,has been demonstrated
same,ultrastructural effect on bacteria,B. bronchiseptica [5],did not result in major ultrastructural abnormalities or discrete holes
same,inhibitory activity,E. coli,Inhibitory activity was observed
same,salt-dependent bactericidal activity,Candida albicans,has been demonstrated
same,inhibitory activity,[6],Inhibitory activity was observed
same,inhibitory activity,Streptococcus suis,Inhibitory activity was observed
"human β-defensin-1: human β-defensin-1, cited from Baneman et al. as without effect on B. pertussis (DHYNCVSSGGQCLYSACPIFTKIQGTCYRGKAKCCK; ends and bridges not checked; cysteine pairing not given here; UniProt P60022 33-68, looked up)",effect on B. pertussis isolates,B. pertussis isolates,no effect
